Literature values as cited in patent US9848955B2, “Resorbable pouches for implantable medical devices” (TYRX Inc., priority 2006, dated 2017).

System: myofibroblast formation
Settings: animal studies of capsular contracture with breast implants [Ajmal et al. (2003)]

## O=S(=O)([O-])CCS.[Na+] [Mesna, sodium 2-mercaptoethane sulfonate]
  myofibroblast formation: diminish myofibroblast formation
